According to ChEMBL document CHEMBL1134022, “2-Acylimino-3H-thiazoline derivatives: a novel template for platelet GPIIb/IIIa receptor antagonists” (Bioorg Med Chem Lett, 2001):

Tests used:
[1] = target: T1, Integrin alpha-IIb/beta-3 (Homo sapiens, UniProt P05106+P08514); test: Affinity for purified activated GPIIb/IIIa fibrinogen receptor in ELISA; assay type: protein-complex assay
[2] = target: T1, Integrin alpha-IIb/beta-3; test: Binding to [125I]- fibrinogen by washed platelet fibrinogen receptor

T1 sequence (P05106 27-788 limits assumed): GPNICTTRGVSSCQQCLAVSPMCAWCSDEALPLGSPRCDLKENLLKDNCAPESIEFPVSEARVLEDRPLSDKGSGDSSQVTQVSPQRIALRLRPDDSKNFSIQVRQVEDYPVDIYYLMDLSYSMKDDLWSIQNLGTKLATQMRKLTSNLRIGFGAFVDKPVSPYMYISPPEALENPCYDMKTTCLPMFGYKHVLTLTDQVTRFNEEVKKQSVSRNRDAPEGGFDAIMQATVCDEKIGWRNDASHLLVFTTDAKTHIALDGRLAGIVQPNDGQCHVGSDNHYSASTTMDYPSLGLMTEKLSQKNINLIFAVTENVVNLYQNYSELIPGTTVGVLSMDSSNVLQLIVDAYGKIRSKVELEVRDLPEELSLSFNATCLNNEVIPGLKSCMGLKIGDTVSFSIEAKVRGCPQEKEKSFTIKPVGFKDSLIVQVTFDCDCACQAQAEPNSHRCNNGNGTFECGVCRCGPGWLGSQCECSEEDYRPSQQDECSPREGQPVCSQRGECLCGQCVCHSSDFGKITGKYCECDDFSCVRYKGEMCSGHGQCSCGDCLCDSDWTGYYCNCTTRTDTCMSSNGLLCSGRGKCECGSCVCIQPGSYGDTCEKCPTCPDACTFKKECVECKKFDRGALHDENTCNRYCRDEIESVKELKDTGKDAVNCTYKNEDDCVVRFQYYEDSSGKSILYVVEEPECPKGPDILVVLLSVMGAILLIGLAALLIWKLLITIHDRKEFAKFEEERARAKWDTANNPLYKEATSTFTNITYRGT
T1 sequence (P08514 32-887 limits assumed): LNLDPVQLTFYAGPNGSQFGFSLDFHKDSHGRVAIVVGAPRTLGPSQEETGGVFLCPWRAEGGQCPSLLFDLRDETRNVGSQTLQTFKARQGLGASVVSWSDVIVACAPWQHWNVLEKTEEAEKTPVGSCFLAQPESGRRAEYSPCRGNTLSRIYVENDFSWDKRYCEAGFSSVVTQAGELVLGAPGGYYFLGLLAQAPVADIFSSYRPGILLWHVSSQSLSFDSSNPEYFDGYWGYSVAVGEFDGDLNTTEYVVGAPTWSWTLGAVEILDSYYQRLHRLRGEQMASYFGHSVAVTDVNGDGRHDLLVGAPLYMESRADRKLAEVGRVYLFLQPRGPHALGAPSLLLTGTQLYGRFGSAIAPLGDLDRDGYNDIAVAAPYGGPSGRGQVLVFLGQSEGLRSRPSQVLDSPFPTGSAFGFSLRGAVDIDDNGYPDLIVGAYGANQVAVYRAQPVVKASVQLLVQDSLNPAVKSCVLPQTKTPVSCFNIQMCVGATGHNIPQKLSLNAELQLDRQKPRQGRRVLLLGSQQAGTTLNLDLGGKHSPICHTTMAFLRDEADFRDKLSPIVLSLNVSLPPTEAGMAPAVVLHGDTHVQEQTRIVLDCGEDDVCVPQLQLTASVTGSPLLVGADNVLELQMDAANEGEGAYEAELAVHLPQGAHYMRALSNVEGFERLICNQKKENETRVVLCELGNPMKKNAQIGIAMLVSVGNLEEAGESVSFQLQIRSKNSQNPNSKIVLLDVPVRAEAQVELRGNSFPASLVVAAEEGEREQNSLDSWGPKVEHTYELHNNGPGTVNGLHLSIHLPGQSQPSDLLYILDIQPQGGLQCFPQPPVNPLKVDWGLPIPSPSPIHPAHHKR
T1 sequence (P08514 891-1039 limits assumed): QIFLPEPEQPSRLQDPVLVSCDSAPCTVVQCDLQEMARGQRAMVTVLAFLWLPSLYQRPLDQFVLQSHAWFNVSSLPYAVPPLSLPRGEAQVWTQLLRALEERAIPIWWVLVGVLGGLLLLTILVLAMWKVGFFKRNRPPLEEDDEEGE

Structure (SMILES) | IC50 [1] [nM] | IC50 [2] [nM]
Cc1nc(NC(=O)c2ccc(C(=N)N)cc2)sc1CCC(=O)O | 0.57 | 60.5
N=C(N)c1ccc(C(=O)Nc2cccc(CCC(=O)O)c2)cc1 | 0.55 | 105
Cn1c2c(s/c1=N\C(=O)c1ccc(C(=N)N)cc1)C(=O)N(CCC(=O)O)C2 | 4.76 | 67.9
Cc1nc(N(C)C(=O)c2ccc(C(=N)N)cc2)sc1CCC(=O)O | 1 | 

Other lines, results leading:

IC50 [1] [nM] | IC50 [2] [nM] | Structure (SMILES)
0.09 |  | Cc1c(C(=O)NCCC(=O)O)s/c(=N\C(=O)c2ccc(C(=N)N)cc2)n1Cc1ccccc1
0.89 | 51.8 | Cc1c(C(=O)N(C)CCC(=O)O)s/c(=N\C(=O)c2ccc(C(=N)N)cc2)n1C
0.12 |  | CCn1c(C)c(C(=O)NCCC(=O)O)s/c1=N\C(=O)c1ccc(C(=N)N)cc1
0.13 | 6.26 | CCCCn1c(C)c(C(=O)NCCC(=O)O)s/c1=N\C(=O)c1ccc(C(=N)N)cc1
